Laboratory results: publication PMC8632988, “Inhibition of SYK and cSrc kinases can protect bone and cartilage in preclinical models of osteoarthritis and rheumatoid arthritis” (Scientific Reports, 2021)

Assays:
Experiment in all cases: Kinase selectivity profile assay
Type in all cases: biochemical
[1] = molecular target: T1, TNIK (Homo sapiens, UniProt Q9UKE5); conditions: 500 nM; relative to DMSO; read-out: Residual enzymatic activity
T1 construct: purchased Reaction Biology Corporation
Experimental: (§1) The activity of MT-SYK-03 against cSrc kinase and selectivity profile towards other 341 kinases was determined at Reaction Biology Corporation (Malvern, PA, USA) using the standard kinase assay protocol. […]; unbound phosphate was removed by extensive washing of filters in phosphoric acid. Kinase activity data was expressed as the percent remaining kinase activity in test samples compared to vehicle (dimethyl sulfoxide) reactions based on the radioactivity of reaction products (see Table S2). Experiment was replicated twice.

[2] = molecular target: T2, IRAK1 (Homo sapiens, UniProt P51617); conditions: 500 nM; relative to DMSO; read-out: Residual enzymatic activity
T2 construct: purchased Reaction Biology Corporation
Experimental: as §1

[3] = molecular target: T3, KHS/MAP4K5 (Homo sapiens, UniProt Q9Y4K4); conditions: 500 nM; relative to DMSO; read-out: Residual enzymatic activity
T3 construct: purchased Reaction Biology Corporation
Experimental: as §1

[4] = molecular target: T4, NEK9 (Homo sapiens, UniProt Q8TD19); conditions: 500 nM; relative to DMSO; read-out: Residual enzymatic activity
T4 construct: purchased Reaction Biology Corporation
Experimental: as §1

[5] = molecular target: T5, GSK3a (Homo sapiens, UniProt P49840); conditions: 500 nM; relative to DMSO; read-out: Residual enzymatic activity
T5 construct: purchased Reaction Biology Corporation
Experimental: as §1

[6] = molecular target: T6, MEK2 (Homo sapiens, UniProt P36507); conditions: 500 nM; relative to DMSO; read-out: Residual enzymatic activity
T6 construct: purchased Reaction Biology Corporation
Experimental: as §1

[7] = molecular target: T7, MST2/STK3 (Homo sapiens, UniProt Q13188); conditions: 500 nM; relative to DMSO; read-out: Residual enzymatic activity
T7 construct: purchased Reaction Biology Corporation
Experimental: as §1

[8] = molecular target: T8, p70S6K/RPS6KB1 (Homo sapiens, UniProt P23443); conditions: 500 nM; relative to DMSO; read-out: Residual enzymatic activity
T8 construct: purchased Reaction Biology Corporation
Experimental: as §1

[9] = molecular target: T9, RSK1 (Homo sapiens, UniProt Q15418); conditions: 500 nM; relative to DMSO; read-out: Residual enzymatic activity
T9 construct: purchased Reaction Biology Corporation
Experimental: as §1

[10] = molecular target: T10, PKN3/PRK3 (Homo sapiens, UniProt Q6P5Z2); conditions: 500 nM; relative to DMSO; read-out: Residual enzymatic activity
T10 construct: purchased Reaction Biology Corporation
Experimental: as §1

[11] = molecular target: T11, GSK3b (Homo sapiens, UniProt P49841); conditions: 500 nM; relative to DMSO; read-out: Residual enzymatic activity
T11 construct: purchased Reaction Biology Corporation
Experimental: as §1

[12] = molecular target: T12, P38d/MAPK13 (Homo sapiens, UniProt O15264); conditions: 500 nM; relative to DMSO; read-out: Residual enzymatic activity
T12 construct: purchased Reaction Biology Corporation
Experimental: as §1

[13] = molecular target: T13, DRAK1/STK17A (Homo sapiens, UniProt Q9UEE5); conditions: 500 nM; relative to DMSO; read-out: Residual enzymatic activity
T13 construct: purchased Reaction Biology Corporation
Experimental: as §1

[14] = molecular target: T14, TAOK1 (Homo sapiens, UniProt Q7L7X3); conditions: 500 nM; relative to DMSO; read-out: Residual enzymatic activity
T14 construct: purchased Reaction Biology Corporation
Experimental: as §1

[15] = molecular target: T15, CAMK1b (Homo sapiens, UniProt Q6P2M8); conditions: 500 nM; relative to DMSO; read-out: Residual enzymatic activity
T15 construct: purchased Reaction Biology Corporation
Experimental: as §1

[16] = molecular target: T16, CDK5/p25 (Homo sapiens, UniProt Q00535); conditions: 500 nM; relative to DMSO; read-out: Residual enzymatic activity
T16 construct: purchased Reaction Biology Corporation
Experimental: as §1

[17] = molecular target: T17, GRK1 (Homo sapiens, UniProt Q15835); conditions: 500 nM; relative to DMSO; read-out: Residual enzymatic activity
T17 construct: purchased Reaction Biology Corporation
Experimental: as §1

[18] = molecular target: T18, PDGFRb (Homo sapiens, UniProt P09619); conditions: for remaining activity at 0.5 µM: 500 nM, relative to DMSO, read-out: Residual enzymatic activity
T18 construct: purchased Reaction Biology Corporation (Malvern, PA, USA)
Experimental: as §1

[19] = molecular target: T19, RIPK2 (Homo sapiens, UniProt O43353); conditions: 500 nM; relative to DMSO; read-out: Residual enzymatic activity
T19 construct: purchased Reaction Biology Corporation
Experimental: as §1

[20] = molecular target: T20, EPHA8 (Homo sapiens, UniProt P29322); conditions: 500 nM, relative to DMSO
T20 construct: purchased Reaction Biology Corporation
Experimental: as §1

[21] = molecular target: T21, VRK1 (Homo sapiens, UniProt Q99986); conditions: 500 nM; relative to DMSO; read-out: Residual enzymatic activity
T21 construct: purchased Reaction Biology Corporation
Experimental: as §1

[22] = molecular target: T22, JAK1 (Homo sapiens, UniProt P23458); conditions: 500 nM; relative to DMSO; read-out: Residual enzymatic activity
T22 construct: purchased Reaction Biology Corporation
Experimental: as §1

[23] = molecular target: T23, HGK/MAP4K4 (Homo sapiens, UniProt O95819); conditions: 500 nM; relative to DMSO; read-out: Residual enzymatic activity
T23 construct: purchased Reaction Biology Corporation
Experimental: as §1

[24] = molecular target: T24, EPHA3 (Homo sapiens, UniProt P29320); conditions: 500 nM, relative to DMSO
T24 construct: purchased Reaction Biology Corporation
Experimental: as §1

[25] = molecular target: T25, TAK1 (Homo sapiens, UniProt O43318); conditions: 500 nM; relative to DMSO; read-out: Residual enzymatic activity
T25 construct: purchased Reaction Biology Corporation
Experimental: as §1

[26] = molecular target: T26, SRPK1 (Homo sapiens, UniProt Q96SB4); conditions: 500 nM; relative to DMSO; read-out: Residual enzymatic activity
T26 construct: purchased Reaction Biology Corporation
Experimental: as §1

[27] = molecular target: T27, ABL1 (Homo sapiens, UniProt P00519); conditions: 500 nM, relative to DMSO; for remaining activity at 0.5 µM: read-out: Residual enzymatic activity
T27 construct: purchased Reaction Biology Corporation
Experimental: as §1

[28] = molecular target: T28, CDK5/p35 (Homo sapiens, UniProt Q00535); conditions: 500 nM; relative to DMSO; read-out: Residual enzymatic activity
T28 construct: purchased Reaction Biology Corporation
Experimental: as §1

[29] = molecular target: T29, RIPK5 (Homo sapiens, UniProt Q6XUX3); conditions: 500 nM; relative to DMSO; read-out: Residual enzymatic activity
T29 construct: purchased Reaction Biology Corporation
Experimental: as §1

[30] = molecular target: T30, PKCg (Homo sapiens, UniProt P05129); conditions: 500 nM; relative to DMSO; read-out: Residual enzymatic activity
T30 construct: purchased Reaction Biology Corporation
Experimental: as §1

[31] = molecular target: T31, TXK (Homo sapiens, UniProt P42681); conditions: for remaining activity at 0.5 µM: 500 nM, relative to DMSO, read-out: Residual enzymatic activity
T31 construct: purchased Reaction Biology Corporation (Malvern, PA, USA)
T31 sequence (P42681 1-527): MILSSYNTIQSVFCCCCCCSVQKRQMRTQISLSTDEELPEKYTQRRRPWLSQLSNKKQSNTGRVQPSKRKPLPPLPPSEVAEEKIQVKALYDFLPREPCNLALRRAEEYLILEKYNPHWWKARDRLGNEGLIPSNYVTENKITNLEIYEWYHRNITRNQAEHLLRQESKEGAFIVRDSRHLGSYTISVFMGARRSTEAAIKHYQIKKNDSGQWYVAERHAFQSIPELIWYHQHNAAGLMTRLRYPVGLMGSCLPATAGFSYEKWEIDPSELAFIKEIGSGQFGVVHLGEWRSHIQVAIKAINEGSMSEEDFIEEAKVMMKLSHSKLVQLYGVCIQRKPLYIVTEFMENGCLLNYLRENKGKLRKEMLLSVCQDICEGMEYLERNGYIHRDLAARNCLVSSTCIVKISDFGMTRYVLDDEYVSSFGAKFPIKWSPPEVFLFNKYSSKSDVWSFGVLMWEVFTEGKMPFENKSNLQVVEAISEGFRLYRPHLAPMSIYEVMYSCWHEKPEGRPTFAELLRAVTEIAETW
Experimental: as §1

[32] = molecular target: T32, MARK4 (Homo sapiens, UniProt Q96L34); conditions: 500 nM; relative to DMSO; read-out: Residual enzymatic activity
T32 construct: purchased Reaction Biology Corporation
Experimental: as §1

[33] = molecular target: T33, DYRK1/DYRK1A (Homo sapiens, UniProt Q13627); conditions: 500 nM; relative to DMSO; read-out: Residual enzymatic activity
T33 construct: purchased Reaction Biology Corporation
Experimental: as §1

[34] = 10-dose mode, threefold serial dilution from 10 μM
[35] = read-out: Residual enzymatic activity

T18 sequence (P09619 33-1106): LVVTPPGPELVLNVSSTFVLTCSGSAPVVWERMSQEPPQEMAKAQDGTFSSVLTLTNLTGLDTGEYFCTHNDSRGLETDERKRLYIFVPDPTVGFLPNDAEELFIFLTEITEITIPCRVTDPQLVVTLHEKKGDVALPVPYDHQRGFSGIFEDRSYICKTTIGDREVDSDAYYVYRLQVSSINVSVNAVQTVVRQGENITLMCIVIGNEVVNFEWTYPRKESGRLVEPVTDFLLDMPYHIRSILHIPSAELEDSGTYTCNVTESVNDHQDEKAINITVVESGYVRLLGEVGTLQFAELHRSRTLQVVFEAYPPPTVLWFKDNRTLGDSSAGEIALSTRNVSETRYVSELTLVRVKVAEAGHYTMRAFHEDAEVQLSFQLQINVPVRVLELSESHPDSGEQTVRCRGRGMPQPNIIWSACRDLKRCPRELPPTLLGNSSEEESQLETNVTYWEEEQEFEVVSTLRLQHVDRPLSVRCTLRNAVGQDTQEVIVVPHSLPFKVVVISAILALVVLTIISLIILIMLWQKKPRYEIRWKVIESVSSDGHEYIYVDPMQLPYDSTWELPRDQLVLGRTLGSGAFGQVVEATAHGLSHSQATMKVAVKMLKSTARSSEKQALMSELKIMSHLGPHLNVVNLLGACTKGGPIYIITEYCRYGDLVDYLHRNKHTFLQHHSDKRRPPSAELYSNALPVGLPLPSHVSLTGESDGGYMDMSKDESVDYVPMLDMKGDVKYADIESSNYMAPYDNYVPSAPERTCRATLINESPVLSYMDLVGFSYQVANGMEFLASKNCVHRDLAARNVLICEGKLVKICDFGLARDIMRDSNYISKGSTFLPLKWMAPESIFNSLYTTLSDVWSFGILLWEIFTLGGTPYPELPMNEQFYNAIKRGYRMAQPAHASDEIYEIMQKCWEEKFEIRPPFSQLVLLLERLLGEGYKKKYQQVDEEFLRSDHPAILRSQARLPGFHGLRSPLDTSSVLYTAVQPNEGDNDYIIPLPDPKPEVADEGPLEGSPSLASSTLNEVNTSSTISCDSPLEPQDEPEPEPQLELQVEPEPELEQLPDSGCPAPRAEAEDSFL
T27 sequence (P00519 whole entry): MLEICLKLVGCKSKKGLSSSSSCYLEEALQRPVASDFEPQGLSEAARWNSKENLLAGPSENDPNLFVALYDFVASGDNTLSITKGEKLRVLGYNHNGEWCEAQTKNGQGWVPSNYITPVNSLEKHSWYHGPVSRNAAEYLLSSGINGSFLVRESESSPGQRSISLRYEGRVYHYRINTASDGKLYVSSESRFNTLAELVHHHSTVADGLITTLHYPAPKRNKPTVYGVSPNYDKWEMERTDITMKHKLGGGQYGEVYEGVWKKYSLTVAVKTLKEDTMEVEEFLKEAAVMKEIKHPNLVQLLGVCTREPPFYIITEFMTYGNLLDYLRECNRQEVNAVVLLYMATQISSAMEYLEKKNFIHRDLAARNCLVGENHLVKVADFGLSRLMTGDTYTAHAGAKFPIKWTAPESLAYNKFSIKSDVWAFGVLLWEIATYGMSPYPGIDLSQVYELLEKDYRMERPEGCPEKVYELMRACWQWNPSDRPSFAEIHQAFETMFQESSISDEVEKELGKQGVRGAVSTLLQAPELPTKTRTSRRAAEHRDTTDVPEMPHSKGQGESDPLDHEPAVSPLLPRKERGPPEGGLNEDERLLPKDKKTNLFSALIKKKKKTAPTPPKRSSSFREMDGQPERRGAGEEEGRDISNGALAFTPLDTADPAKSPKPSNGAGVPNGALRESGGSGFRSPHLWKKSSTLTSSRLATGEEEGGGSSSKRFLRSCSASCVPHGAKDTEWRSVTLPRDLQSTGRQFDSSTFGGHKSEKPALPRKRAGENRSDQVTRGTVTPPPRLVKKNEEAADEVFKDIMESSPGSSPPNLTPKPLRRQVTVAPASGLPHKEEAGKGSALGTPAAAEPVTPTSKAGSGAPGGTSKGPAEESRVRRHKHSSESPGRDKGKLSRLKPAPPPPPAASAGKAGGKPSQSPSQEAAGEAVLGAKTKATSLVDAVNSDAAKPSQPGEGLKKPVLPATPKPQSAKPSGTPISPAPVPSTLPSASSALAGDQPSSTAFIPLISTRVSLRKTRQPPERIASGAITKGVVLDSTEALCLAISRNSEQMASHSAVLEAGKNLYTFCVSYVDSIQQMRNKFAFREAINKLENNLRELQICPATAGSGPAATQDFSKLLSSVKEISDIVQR
T5 sequence (P49840 whole entry): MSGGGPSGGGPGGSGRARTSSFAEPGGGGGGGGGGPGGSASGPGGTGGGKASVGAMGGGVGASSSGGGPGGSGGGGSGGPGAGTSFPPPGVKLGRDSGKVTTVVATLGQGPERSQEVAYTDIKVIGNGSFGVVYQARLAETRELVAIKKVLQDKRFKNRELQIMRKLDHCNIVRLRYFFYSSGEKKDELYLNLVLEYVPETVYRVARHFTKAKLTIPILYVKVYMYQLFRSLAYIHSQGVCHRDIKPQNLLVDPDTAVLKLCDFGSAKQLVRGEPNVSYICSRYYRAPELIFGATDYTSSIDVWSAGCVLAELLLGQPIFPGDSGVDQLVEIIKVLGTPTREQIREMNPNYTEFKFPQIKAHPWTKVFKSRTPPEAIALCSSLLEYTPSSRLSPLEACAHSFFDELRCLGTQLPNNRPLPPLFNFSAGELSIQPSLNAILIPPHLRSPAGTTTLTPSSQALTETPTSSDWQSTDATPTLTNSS
T25 sequence (O43318 1-303 limits assumed): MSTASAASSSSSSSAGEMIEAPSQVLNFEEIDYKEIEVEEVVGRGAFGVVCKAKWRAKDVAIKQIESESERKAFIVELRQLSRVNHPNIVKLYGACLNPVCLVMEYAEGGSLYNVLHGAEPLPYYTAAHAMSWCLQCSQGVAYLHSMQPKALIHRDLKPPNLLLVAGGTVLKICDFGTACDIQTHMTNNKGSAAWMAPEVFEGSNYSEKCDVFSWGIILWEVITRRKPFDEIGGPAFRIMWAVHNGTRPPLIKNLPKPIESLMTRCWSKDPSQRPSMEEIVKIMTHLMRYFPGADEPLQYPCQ
T10 sequence (Q6P5Z2 whole entry): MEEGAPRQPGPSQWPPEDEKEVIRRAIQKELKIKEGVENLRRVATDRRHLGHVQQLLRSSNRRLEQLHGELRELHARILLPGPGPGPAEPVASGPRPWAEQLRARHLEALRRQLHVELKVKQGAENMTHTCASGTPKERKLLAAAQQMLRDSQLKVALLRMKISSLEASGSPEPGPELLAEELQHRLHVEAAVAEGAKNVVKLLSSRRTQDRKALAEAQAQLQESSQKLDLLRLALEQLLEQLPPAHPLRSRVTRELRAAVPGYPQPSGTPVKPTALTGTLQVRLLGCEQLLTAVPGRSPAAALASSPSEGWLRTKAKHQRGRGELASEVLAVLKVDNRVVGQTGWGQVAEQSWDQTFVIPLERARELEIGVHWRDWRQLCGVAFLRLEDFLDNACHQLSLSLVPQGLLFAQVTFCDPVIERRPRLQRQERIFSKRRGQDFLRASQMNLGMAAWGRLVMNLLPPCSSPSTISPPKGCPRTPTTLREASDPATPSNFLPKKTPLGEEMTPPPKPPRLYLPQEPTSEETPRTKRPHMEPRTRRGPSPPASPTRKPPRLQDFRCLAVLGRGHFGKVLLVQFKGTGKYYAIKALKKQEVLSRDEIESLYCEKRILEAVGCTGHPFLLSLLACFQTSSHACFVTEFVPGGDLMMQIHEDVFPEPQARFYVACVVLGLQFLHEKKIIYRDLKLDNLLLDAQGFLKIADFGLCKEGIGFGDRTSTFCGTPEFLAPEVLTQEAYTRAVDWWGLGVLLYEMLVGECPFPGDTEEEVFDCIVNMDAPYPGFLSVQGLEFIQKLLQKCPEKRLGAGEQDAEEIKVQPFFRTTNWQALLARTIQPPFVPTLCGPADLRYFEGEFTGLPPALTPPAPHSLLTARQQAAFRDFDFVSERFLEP
T15 sequence (Q6P2M8 whole entry): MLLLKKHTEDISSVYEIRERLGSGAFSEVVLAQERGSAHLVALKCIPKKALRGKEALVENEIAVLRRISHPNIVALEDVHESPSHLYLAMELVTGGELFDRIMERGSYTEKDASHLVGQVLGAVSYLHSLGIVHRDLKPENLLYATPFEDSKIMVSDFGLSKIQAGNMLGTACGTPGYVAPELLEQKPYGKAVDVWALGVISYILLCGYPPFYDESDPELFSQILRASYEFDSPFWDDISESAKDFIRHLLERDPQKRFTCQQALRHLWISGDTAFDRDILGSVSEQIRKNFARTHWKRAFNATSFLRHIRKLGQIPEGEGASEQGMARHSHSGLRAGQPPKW

Compound | remaining activity at 0.5 µM [1] [%] | remaining activity at 0.5 µM [2] [%] | remaining activity at 0.5 µM [3] [%] | remaining activity at 0.5 µM [4] [%] | remaining activity at 0.5 µM [5] [%] | remaining activity at 0.5 µM [6] [%] | remaining activity at 0.5 µM [7] [%] | remaining activity at 0.5 µM [8] [%] | remaining activity at 0.5 µM [9] [%] | remaining activity at 0.5 µM [10] [%] | remaining activity at 0.5 µM [11] [%] | remaining activity at 0.5 µM [12] [%] | remaining activity at 0.5 µM [13] [%] | remaining activity at 0.5 µM [14] [%] | remaining activity at 0.5 µM [15] [%] | remaining activity at 0.5 µM [16] [%] | remaining activity at 0.5 µM [17] [%] | remaining activity at 0.5 µM [18] [%] | remaining activity at 0.5 µM [19] [%] | remaining activity at 0.5 µM [21] [%] | also measured
COc1cc(Nc2ncnc(Nc3cc4c(cn3)NC(=O)C(C)(C)O4)n2)cc(OC)c1OC [MT-SYK-03] | 78.6 | 74.6 | 91.8 | 55.7 | 74.2 | 97.2 | 105 | 98.3 | 105 | 90 | 82.4 | 119 | 93.6 | 102 | 106 | 102 | 105 | 24.5 | 84.7 | 102 | IC50 [18, 34]: 4.5 nM; Residual enzymatic activity [20]: 99.7%; remaining activity at 0.5 µM [22]: 63.4%; remaining activity at 0.5 µM [23]: 78.4%; Residual enzymatic activity [24]: 91.8%; remaining activity at 0.5 µM [25]: 103%; remaining activity at 0.5 µM [26]: 108%; Residual enzymatic activity [27]: 68.0%; remaining activity at 0.5 µM [27]: > 54%; remaining activity at 0.5 µM [28]: 101%; remaining activity at 0.5 µM [29]: 104%; remaining activity at 0.5 µM [30]: 103%; remaining activity at 0.5 µM [31]: 35.4%; IC50 [31, 34]: 222 nM; remaining activity at 0.5 µM [32]: 92.1%; remaining activity at 0.5 µM [33]: 90.5%
COc1cc(Nc2ncc(F)c(Nc3ccc4c(n3)NC(=O)C(C)(C)O4)n2)cc(OC)c1OC [R406, reference compound] | 83.1 | 13.5 | 87.1 | 2.5 | 27.5 | 83.5 | 97.9 | 49.1 | 66.9 | 40.8 | 37.9 | 84.7 | 43.3 | 78.1 | 108 | 79.4 | 96 | 6.1 | 73 | 98.8 | remaining activity at 0.5 µM [20, 35]: 92.6%; remaining activity at 0.5 µM [22]: 0%; remaining activity at 0.5 µM [23]: 75.3%; remaining activity at 0.5 µM [24, 35]: 85.6%; remaining activity at 0.5 µM [25]: 48.3%; remaining activity at 0.5 µM [26]: 101%; remaining activity at 0.5 µM [27]: 68.6%; remaining activity at 0.5 µM [28]: 82.9%; remaining activity at 0.5 µM [29]: 100%; remaining activity at 0.5 µM [30]: 63.6%; remaining activity at 0.5 µM [31]: 16.3%; remaining activity at 0.5 µM [32]: 46.7%; remaining activity at 0.5 µM [33]: 53%
